pIC50: −log10 of the molar value. Where two headings read alike, the source gives them in different places.
Tests used:
DPIV [1] = target: T1, DPIV (Homo sapiens, UniProt P27487); assay: DPIV inhibition assay (L-alanyl-L-proline-para-nitroanilide substrate, absorbance at 410 nm)
Description: (§1) The inhibitor solution was prepared by dissolving 3-5 mg of inhibitor in pH 2 solution (0.01 N HCl), such that the concentration of the solution was equal to 1 mg/10 μL. A 10 μL sample of this solution was then added to 990 μL of pH 8 buffer (0.1 M HEPES, 0.14 M NaCl), and the solution was allowed to stand at room temperature overnight.
(§2) The substrate solution was prepared by dissolving 2.0 mg of L-alanyl-L-proline-para-nitroanilide into 20 mL of pH 8 buffer.
(§3) 250 μL of enzyme solution was added to well #B1 to #H1, #A2 to #H2, and #A3 to #H3 of a 96 well plate, while well #A1 received 250 μL of pH 8 buffer instead of enzyme solution. 90 μL of pH 8 buffer was then added to column 5 (from well #A5 to #H5).
(§4) A 1:10 dilution was then performed by adding inhibitor solution to #A5 and the solution was mixed well before transferring 10 μL of this solution from #A5 to #B5. The solution in #B5 was then mixed well before transferring 10 μL of this solution from #B5 to #C5. The solution in #C5 was then mixed well before transferring 10 μL of this solution from #C5 to #D5. The solution in #D5 was then mixed well before transferring 10 μL of this solution from #D5 to #E5. The solution in #E5 was then mixed well before transferring 10 μL of this solution from #E5 to #F5. The solution in #F5 was then mixed well before transferring 10 μL of this solution from #F5 to #G5. The solution in #G5 was then mixed well before transferring 10 μL of this solution from #G5 to #H5.
(§5) A 30 μL aliquot was then transferred from #H5 to #H3 for row H, and the contents were mixed well. The analogous procedure was repeated for rows G, F, E, D, C, B, and A sequentially. The plate was then shaken on a plate shaker for 5 minutes before allowing the plate to incubate at room temperature for an additional 5 minutes.
(§6) Once the plate had been allowed to incubate, 30 μL of substrate was added to each well except well #A1. The plate was then placed on a plate shaker for 5 minutes before allowing the plate to incubate at room temperature for 25 minutes. The absorbance was then immediately read at a wavelength of 410 nm.

DP9 = DP9 (Homo sapiens, UniProt Q86TI2); assay: Dipeptidyl peptidase 9 inhibition assay (Example 1 assay with DP9 substituted for DPIV); assay type: biochemical; settings: for DP9/DPIV ratio: ratio of IC50 values, selectivity for DPIV
Description: In this example, the assay was conducted for DPIV and DP9. The ratio of IC50 values for each tested compound was calculated in order to determine the selectivity for the DPIV isoform. IC50 values were measured at the same pH throughout the assay.

DPIV [2] = target: T1, DPIV; settings: pH 8
Description: as §1, §2, §3, §4, §5, §6

DP8 = DP8 (Homo sapiens, UniProt Q6V1X1); assay: Dipeptidyl peptidase 8 inhibition assay (Example 1 assay with DP8 substituted for DPIV); assay type: biochemical; settings: at the pH values tested
Description: L-Ala-[5-(HOCH2)-2-boroPro] was also tested to determine its inhibition of dipeptidyl peptidases 8 and 9 (DP8 and DP9). The assay is the same as that described in Example 1, except that DP8 or DP9 was substituted for DPIV.

[3] = read-out: DPIV IC50, Example 6, same pH throughout the assay (pH not stated)
[4] = Example 6, same pH throughout the assay (pH not stated), read-out: DP9 IC50

T1 sequence (P27487 whole entry): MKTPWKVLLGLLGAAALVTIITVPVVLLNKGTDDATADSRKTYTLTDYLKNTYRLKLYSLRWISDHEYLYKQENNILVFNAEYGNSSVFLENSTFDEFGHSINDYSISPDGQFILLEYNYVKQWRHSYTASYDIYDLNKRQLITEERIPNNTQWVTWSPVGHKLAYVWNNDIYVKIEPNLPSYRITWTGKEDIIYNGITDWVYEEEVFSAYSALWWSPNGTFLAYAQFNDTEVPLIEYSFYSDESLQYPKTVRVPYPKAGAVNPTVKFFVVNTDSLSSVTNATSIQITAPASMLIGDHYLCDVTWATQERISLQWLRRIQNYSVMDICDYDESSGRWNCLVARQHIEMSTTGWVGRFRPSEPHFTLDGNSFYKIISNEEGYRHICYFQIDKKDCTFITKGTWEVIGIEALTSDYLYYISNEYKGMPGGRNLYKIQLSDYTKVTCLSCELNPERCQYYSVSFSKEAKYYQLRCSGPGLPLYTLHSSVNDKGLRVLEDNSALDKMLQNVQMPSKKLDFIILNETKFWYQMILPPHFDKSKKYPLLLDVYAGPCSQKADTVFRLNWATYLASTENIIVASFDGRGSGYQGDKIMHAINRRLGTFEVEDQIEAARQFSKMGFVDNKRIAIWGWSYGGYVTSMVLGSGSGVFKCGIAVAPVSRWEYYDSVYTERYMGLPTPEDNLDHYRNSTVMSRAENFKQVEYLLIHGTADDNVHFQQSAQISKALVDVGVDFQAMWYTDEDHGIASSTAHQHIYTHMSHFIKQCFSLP
Chain of DP9 (Q86TI2 whole entry, species assumed, canonical isoform): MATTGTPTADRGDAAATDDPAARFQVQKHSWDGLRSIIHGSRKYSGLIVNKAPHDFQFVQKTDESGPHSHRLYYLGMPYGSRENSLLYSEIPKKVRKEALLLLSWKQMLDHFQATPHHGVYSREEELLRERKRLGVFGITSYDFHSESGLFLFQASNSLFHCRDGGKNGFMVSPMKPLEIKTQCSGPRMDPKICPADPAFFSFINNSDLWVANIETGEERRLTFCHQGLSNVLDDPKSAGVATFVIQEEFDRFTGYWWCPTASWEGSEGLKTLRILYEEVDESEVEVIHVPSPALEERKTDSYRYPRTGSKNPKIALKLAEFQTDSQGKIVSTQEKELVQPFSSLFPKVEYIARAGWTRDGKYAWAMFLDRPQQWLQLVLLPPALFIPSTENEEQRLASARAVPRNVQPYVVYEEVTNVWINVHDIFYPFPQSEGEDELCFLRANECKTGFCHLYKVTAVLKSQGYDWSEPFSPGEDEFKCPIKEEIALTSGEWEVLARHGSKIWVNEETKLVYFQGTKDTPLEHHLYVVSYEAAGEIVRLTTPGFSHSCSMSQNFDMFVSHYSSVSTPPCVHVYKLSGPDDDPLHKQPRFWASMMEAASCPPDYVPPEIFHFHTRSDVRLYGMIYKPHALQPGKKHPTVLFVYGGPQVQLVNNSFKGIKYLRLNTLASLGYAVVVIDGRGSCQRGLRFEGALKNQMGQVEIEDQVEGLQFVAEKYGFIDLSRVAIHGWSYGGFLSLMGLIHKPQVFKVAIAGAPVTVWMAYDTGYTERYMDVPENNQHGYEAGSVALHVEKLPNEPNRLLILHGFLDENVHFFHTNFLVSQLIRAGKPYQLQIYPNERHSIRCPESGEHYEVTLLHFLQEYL
Chain of DP8 (Q6V1X1 whole entry, species assumed): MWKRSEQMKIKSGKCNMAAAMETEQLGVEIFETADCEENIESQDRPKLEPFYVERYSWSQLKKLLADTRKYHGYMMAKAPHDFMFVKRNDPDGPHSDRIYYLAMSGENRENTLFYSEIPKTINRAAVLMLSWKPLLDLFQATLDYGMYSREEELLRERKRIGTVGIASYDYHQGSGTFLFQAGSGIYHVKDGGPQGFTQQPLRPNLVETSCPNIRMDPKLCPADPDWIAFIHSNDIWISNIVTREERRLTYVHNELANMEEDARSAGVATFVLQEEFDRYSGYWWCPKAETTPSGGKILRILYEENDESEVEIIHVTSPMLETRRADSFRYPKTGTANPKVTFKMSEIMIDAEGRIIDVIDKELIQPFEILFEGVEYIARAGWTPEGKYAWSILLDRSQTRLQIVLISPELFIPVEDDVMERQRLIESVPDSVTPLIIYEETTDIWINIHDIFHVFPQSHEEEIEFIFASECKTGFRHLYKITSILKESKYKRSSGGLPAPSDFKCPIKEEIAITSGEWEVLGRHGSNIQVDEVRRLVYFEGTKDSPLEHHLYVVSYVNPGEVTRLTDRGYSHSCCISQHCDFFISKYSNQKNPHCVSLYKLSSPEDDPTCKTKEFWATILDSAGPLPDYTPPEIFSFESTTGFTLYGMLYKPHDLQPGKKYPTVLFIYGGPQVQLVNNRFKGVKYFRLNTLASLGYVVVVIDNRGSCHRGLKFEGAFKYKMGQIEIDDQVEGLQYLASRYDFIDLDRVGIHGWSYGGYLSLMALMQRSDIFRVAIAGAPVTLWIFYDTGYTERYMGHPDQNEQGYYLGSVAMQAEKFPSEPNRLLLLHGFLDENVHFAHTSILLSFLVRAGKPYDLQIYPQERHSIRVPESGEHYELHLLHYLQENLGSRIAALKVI

| pIC50 (DPIV [1]; [3]) | pIC50 (DP9; [4]) | DP9/DPIV ratio (DP9) | Molecule | other results |
| --- | --- | --- | --- | --- |
|  | 6.08 | 412 | N=C(N)NCCC[C@H](N)C(=O)N1CCC[C@H]1B(O)O [Arg-boroPro] | IC50 (DPIV [1]; DPIV IC50 (nM), Example 6, same pH throughout the assay (pH not stated)): 2 nM |
| 8.00 | 8.15 | 0.70 | Arg-boroEtGly |  |

The remaining lines, values behind:

| Molecule | pIC50 (DPIV [1]; [3]) | pIC50 (DP9; [4]) | DP9/DPIV ratio (DP9) | other results |
| --- | --- | --- | --- | --- |
| C[C@H](NC(=O)[C@@H](N)CCCN=C(N)N)B(O)O [Arg-boroAla] | 8.10 | 7.64 | 2.88 |  |
| C[C@H](NC(=O)[C@@H](N)CC(=O)O)B(O)O [Asp-boroAla] | 3.10 | 2.30 | 6.28 |  |
| CC[C@H](NC(=O)[C@@H](N)CCC(=O)O)B(O)O [Glu-boroEtg] |  |  |  | pIC50 (DPIV [1]; IC50, DPIV, pH 8): 7.31 |
| N[C@@H](CCC(=O)O)C(=O)N1CCC[C@H]1B(O)O [Glu-boroPro] | 8.52 |  |  | pIC50 (DPIV [2]): 5.62 |
| CC1CC[C@@H](B(O)O)N1C(=O)[C@H](C)N (stereo partly drawn) [L-Ala-5-Me-boroPro] |  |  |  | pIC50 (DPIV [1]; IC50 at pH 2, DPIV, pH 2): 7.96; pIC50 (DPIV [1]; IC50 at pH 8, DPIV, pH 8): 4.81 |
| C[C@H](N)C(=O)N1C(CO)CCC1B(O)O (stereo partly drawn) [L-Ala-[5-(HOCH2)-2-boroPro]] | 7.40 | 1.55 | 700,000 | pIC50 (DPIV [1]; read-out: IC50 at pH 2, DPIV, pH 2): 7.66; pIC50 (DPIV [1]; read-out: IC50 at pH 8, DPIV, pH 8): 4.89; pIC50 (DP9; DP9, at the pH values tested, read-out: IC50): < 4.15; selectivity for DPIV over DP9 (DP9; in words, based on the IC50 ratios of Example 6): highly selective for DPIV; pIC50 (DP8): < 4.15 |

From patent publication US20140018545A1, “Inhibitors of Dipeptidylpeptidase IV” (Trustees of Tufts College, priority 2004, published 2014)
